Data on six compounds can be found in the NIST ThermoML archive (doi:10.1016/j.fluid.2014.05.034).

The conditions of series [1]: for Normal melting temperature: Crystal; for mass density: 101.33 kPa, Liquid, Vibrating tube method.
The nature of series [2]: Molar enthalpy of transition or fusion. The following applies: Crystal; DSC.

± gives the expanded uncertainty stated by the source.

As for `C[n+]1ccn(CC#N)c1.N#Cc1nc(C(F)(F)F)[n-]c1C#N`, the figures for the Normal melting temperature in series [1] (DTA) and in series [1] (visual observation) were 92.7 ± 0.5 °C and 93.0 ± 1.1 °C, respectively. In addition, the “Molar enthalpy of transition or fusion” value in series [2] was 7.36 ± 0.213 kcal/mol.

Regarding `CCCCCC[n+]1cccc2ccccc21.O=S(=O)([N-]S(=O)(=O)C(F)(F)F)C(F)(F)F` [1-hexylquinolinium bis(trifluoromethylsulfonyl)amide], in series [1] (visual observation), the Normal melting temperature is 45 ± 1.1 °C.

The mass density is mass per unit of volume. In the case of `CCCCn1cc[n+](C)c1.N#CC1=NC(C(F)(F)F)=NC1=C=[N-]`, the mass density in series [1] (298.15 K) stood at 1199.65 ± 5 kg/m3.

Take `CC[N+]1(C)CCCCC1.O=S(=O)([N-]S(=O)(=O)C(F)(F)F)C(F)(F)F`: the Normal melting temperature in series [1] (visual observation) stood at 82.8 ± 1.1 °C.

`OCCc1ccccc1` [2-phenylethanol]: the mass density in series [1] (293.15 K) came to 1019 ± 1 kg/m3.

For the compound `CCCCCC[n+]1ccc2ccccc2c1.O=S(=O)([N-]S(=O)(=O)C(F)(F)F)C(F)(F)F` [N-hexylisoquinolinium bis(trifluoromethylsulfonyl)imide], the Normal melting temperature in series [1] (visual observation) came to 55.2 ± 1.1 °C.
